Consider twelve molecules from US11434237B2, “Selective ligands for tau aggregates” (KARIN & STEN MORTSTEDT CBD SOLUTIONS AB, priority 2017, dated 2022).

The target in one experiment is T1, tau aggregates (Homo sapiens, UniProt P10636).
T1 construct: tissue sections (20 μm) from human AD brain; from tissue; host or cells: human AD brain tissue sections (20 μm)
Nature of the experiment: Compound and antibody AT100 double staining of AD brain tissue sections. It counts as binding. Conditions: for Labelling of immune-positive NFTs and dystrophic neurites / Fluorescence from tested compound observed / Overlap between Fluorescence from tested compound and fluorescence from AT-100 observed: 100 nM compound; for Labelling of immune-positive NFTs and dystrophic neurites: AT100 co-staining, AD brain sections; for Fluorescence from tested compound observed / Overlap between Fluorescence from tested compound and fluorescence from AT-100 observed: human AD brain tissue sections; for Fluorescence from tested compound observed: double staining with tau antibody AT-100; for Overlap between Fluorescence from tested compound and fluorescence from AT-100 observed: tau antibody AT-100; for Fluorescence from AT-100 observed: signal of tau antibody AT-100 in the section stained with 100 nM of the compound. How it is done: (§1) To achieve compound and antibody double staining of Aβ or tau aggregates, tissue sections (20 μm) from human AD brain were fixed in 70% EtOH at 4° C. for 3 min, rehydrated in distilled water and then incubated in PBS for 30 min. Sections were blocked and permeabilized in PBS with 5% normal goat serum and 0.1% triton X-100 (blocking buffer) for 1 h at room temperature (RT). Antibody 4G8 (Biolegend, San Diego, Calif., USA) reactive to Aβ, and AT100 (Thermo Fisher Scientific, Waltham, Mass., USA) directed against tau phosphorylated at […] (3) were diluted 1:500 and 1:1000, respectively, in blocking buffer and added to the sections. After 16 h incubation at 4° C. unbound antibody was removed by washing in PBS with 0.1% triton X-100 (PBS-T) 3×10 min. To visualize antibody binding to Aβ or tau aggregates sections were incubated with goat anti-mouse secondary antibody labelled with Alexa 647 (Thermo Fisher Scientific). The antibody was diluted 1:200 in blocking buffer and after 1 h incubation at RT sections were washed in PBS 3×10 min. Example Compound 3a, Example Compound 3b, Example Compound 3c, Example Compound 3d, Example Compound 3e, Example Compound 3f, Example Compound 3g, Example Compound 3h, Example Compound 3i, Example Compound 3j, Example Compound 3k, Example Compound 3m, Example Compound 3n, Example Compound 3o, Example Compound 3p, Example Compound 3q, Example Compound 3r, Example Compound 3s, Example Compound 3t, Example Compound 3u, Example Compound 8a, Comparative Example 1, Comparative Example 2, Comparative Example 3 and Comparative Example 4 were dissolved in DMSO to a concentration of 1.5 mM and then further diluted in PBS to a final concentration of 100 nM compound prior to staining. The tissue sections were then stained for 30 min at RT with these freshly prepared solutions containing 100 nM of the respective compound in PBS. After three washes in PBS the sections were mounted in Dako mounting medium for fluorescence (Dako Cytomation, Glostrup, Denmark) and allowed to dry overnight before analysis. Fluorescence images were collected using an inverted LSM 780 confocal microscope (Carl Zeiss, Oberkochen, Germany) with the following excitation/emission wavelengths optimized for each compound: 458/484-600 (Comparative Example 1, Comparative Example 3), 561/569-648 (Example Compound 3a, Example Compound 3b, Example Compound 3c, Example Compound 3d, Example Compound 3e, Example Compound 3f, Example Compound 3g, Example Compound 3h, Example Compound 3i, Example Compound 3j, Example Compound 3k, Example Compound 3m, Example Compound 3n, Example Compound 3o, Example Compound 3p, Example Compound 3q, Example Compound 3r, Example Compound 3s, Example Compound 3t, Example Compound 3u, Example Compound 8a, Comparative Example 2 and Comparative Example 4) and 633/638-755 (Alexa 647). To visualize autofluorescent lipofuscin excitation/emission wavelengths 405/410-480 or 405/410-514 were used.

Another experiment has as its target T2, Aβ aggregates (Homo sapiens, UniProt P05067).
T2 construct: compound and antibody double staining of Aβ or tau aggregates; from tissue; host or cells: human AD brain tissue sections (20 μm)
Nature of the experiment: Compound and antibody 4G8 double staining of AD brain tissue sections. The format is binding. Conditions: for Overlap between Fluorescence from tested compound and fluorescence from 4G8 observed / Fluorescence from tested compound observed: 100 nM compound, human AD brain tissue sections; for Overlap between Fluorescence from tested compound and fluorescence from 4G8 observed: Aβ antibody 4G8; for Fluorescence from tested compound observed: double staining with Aβ antibody 4G8; for Fluorescence from 4G8 observed: signal of Aβ antibody 4G8 in the section stained with 100 nM of the compound. How it is done:
as §1

T1 sequence (P10636 1-441 isoform P10636-8): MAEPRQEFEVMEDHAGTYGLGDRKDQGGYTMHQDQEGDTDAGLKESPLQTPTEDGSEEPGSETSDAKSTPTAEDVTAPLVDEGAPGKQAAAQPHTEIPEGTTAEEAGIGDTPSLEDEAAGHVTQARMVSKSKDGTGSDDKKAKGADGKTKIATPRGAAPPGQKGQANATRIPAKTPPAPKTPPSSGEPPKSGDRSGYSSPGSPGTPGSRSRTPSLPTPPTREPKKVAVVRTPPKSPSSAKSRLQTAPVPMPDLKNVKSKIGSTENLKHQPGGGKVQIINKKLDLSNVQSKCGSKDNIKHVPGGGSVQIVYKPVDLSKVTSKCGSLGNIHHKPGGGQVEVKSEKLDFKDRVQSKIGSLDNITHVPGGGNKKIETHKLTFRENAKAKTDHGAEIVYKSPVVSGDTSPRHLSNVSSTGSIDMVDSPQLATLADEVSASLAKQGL
T2 sequence (P05067 672-713 limits assumed): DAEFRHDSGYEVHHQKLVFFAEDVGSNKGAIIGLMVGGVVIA

`CC[n+]1c(/C=C/c2ccc(-c3ccc(C(=O)OC)s3)s2)sc2ccc(O)cc21.[I-]` [Example Compound 3u]: at tau aggregates, the “Labelling of immune-positive NFTs and dystrophic neurites” value (“Labelling” for short) is “labelled both immune-positive NFTs and dystrophic neurites”; the “Fluorescence from tested compound observed” value is reported as “yes”; the “Overlap between Fluorescence from tested compound and fluorescence from AT-100 observed” value was “yes”; the “Fluorescence from AT-100 observed” value was “yes”. In addition, on Aβ aggregates, the “Overlap between Fluorescence from tested compound and fluorescence from 4G8 observed” value (“Overlap between Fluorescence … from 4G8 observed” for short) was “no correlation and no”; the “Fluorescence from tested compound observed” value is “yes”; the “Fluorescence from 4G8 observed” value is listed as “yes”.

Consider `CC[n+]1c(/C=C/c2ccc(-c3ccc(CC(=O)OC)s3)s2)sc2ccccc21.[I-]` [Example Compound 3d], for which, on tau aggregates, the “Labelling” value was “labelled both immune-positive NFTs and dystrophic neurites”; the “Fluorescence from tested compound observed” value was “yes”; the “Overlap between Fluorescence from tested compound and fluorescence from AT-100 observed” value was “yes”; the “Fluorescence from AT-100 observed” value was “yes”. Besides, at Aβ aggregates, the “Overlap between Fluorescence … from 4G8 observed” value is “no correlation and no”; the “Fluorescence from tested compound observed” value is “yes”; the “Fluorescence from 4G8 observed” value is reported as “yes”.

In the case of `CC[n+]1c(/C=C/c2ccc(-c3ccc4ncsc4c3)s2)sc2ccccc21.[I-]` [Example Compound 3s], at tau aggregates, the “Labelling” value was “labelled both immune-positive NFTs and dystrophic neurites”; the “Fluorescence from tested compound observed” value is given as “yes”; the “Overlap between Fluorescence from tested compound and fluorescence from AT-100 observed” value is reported as “yes”; the “Fluorescence from AT-100 observed” value was “yes”. In addition, on Aβ aggregates, the “Overlap between Fluorescence … from 4G8 observed” value was “no correlation and no”; the “Fluorescence from tested compound observed” value was “yes”; the “Fluorescence from 4G8 observed” value is “yes”.

With `CC[n+]1c(/C=C/c2ccc(-c3cccc4nsnc34)s2)sc2ccccc21.[I-]` [Example Compound 3o], on tau aggregates, the “Labelling” value was “labelled both immune-positive NFTs and dystrophic neurites”; the “Fluorescence from tested compound observed” value was “yes”; the “Overlap between Fluorescence from tested compound and fluorescence from AT-100 observed” value is given as “yes”; the “Fluorescence from AT-100 observed” value is recorded as “yes”. Besides, on Aβ aggregates, the “Overlap between Fluorescence … from 4G8 observed” value was “no correlation and no”; the “Fluorescence from tested compound observed” value was “yes”; the “Fluorescence from 4G8 observed” value was “yes”.

In the case of `CC[n+]1c(/C=C/c2ccc(-c3ccc4c(c3)OCO4)s2)sc2ccccc21.[I-]` [Example Compound 3m], at tau aggregates, the “Labelling” value is “labelled both immune-positive NFTs and dystrophic neurites”; the “Fluorescence from tested compound observed” value was “yes”; the “Overlap between Fluorescence from tested compound and fluorescence from AT-100 observed” value is recorded as “yes”; the “Fluorescence from AT-100 observed” value is “yes”. At Aβ aggregates, the “Overlap between Fluorescence … from 4G8 observed” value is “no correlation and no”; the “Fluorescence from tested compound observed” value is “yes”; the “Fluorescence from 4G8 observed” value was “yes”.

For the molecule `CC[n+]1c(/C=C/c2ccc(-c3ccc(C(=O)OC)[se]3)s2)sc2ccccc21.[I-]` [Example Compound 3r], at tau aggregates, the “Labelling” value is “labelled both immune-positive NFTs and dystrophic neurites”; the “Fluorescence from tested compound observed” value was “yes”; the “Overlap between Fluorescence from tested compound and fluorescence from AT-100 observed” value is “yes”; the “Fluorescence from AT-100 observed” value is “yes”. Further, at Aβ aggregates, the “Overlap between Fluorescence … from 4G8 observed” value was “no correlation and no”; the “Fluorescence from tested compound observed” value is “yes”; the “Fluorescence from 4G8 observed” value is on record as “yes”.

Consider `CC[CH-][n+]1c(/C=C/c2ccc(-c3ccc(C(=O)OC)s3)s2)sc2ccccc21` [Example Compound 3g], for which, at tau aggregates, the “Labelling” value was “labelled both immune-positive NFTs and dystrophic neurites”; the “Fluorescence from tested compound observed” value is reported as “yes”; the “Overlap between Fluorescence from tested compound and fluorescence from AT-100 observed” value is on record as “yes”; the “Fluorescence from AT-100 observed” value is given as “yes”. In addition, on Aβ aggregates, the “Overlap between Fluorescence … from 4G8 observed” value is “no correlation and no”; the “Fluorescence from tested compound observed” value is on record as “yes”; the “Fluorescence from 4G8 observed” value is on record as “yes”.

As for `CC[n+]1c(/C=C/c2cnc(-c3ccc(C(=O)OC)s3)s2)sc2ccccc21.[I-]` [Example Compound 3j], at tau aggregates, the “Labelling” value was “labelled both immune-positive NFTs and dystrophic neurites”; the “Fluorescence from tested compound observed” value is listed as “yes”; the “Overlap between Fluorescence from tested compound and fluorescence from AT-100 observed” value is “yes”; the “Fluorescence from AT-100 observed” value was “yes”. Besides, on Aβ aggregates, the “Overlap between Fluorescence … from 4G8 observed” value was “no correlation and no”; the “Fluorescence from tested compound observed” value was “yes”; the “Fluorescence from 4G8 observed” value is on record as “yes”.

Consider `CC[n+]1c(/C=C/c2ccc(-c3ccc(C#N)s3)s2)sc2ccccc21.[I-]` [Example Compound 3t], for which, at tau aggregates, the “Labelling” value was “labelled both immune-positive NFTs and dystrophic neurites”; the “Fluorescence from tested compound observed” value is reported as “yes”; the “Overlap between Fluorescence from tested compound and fluorescence from AT-100 observed” value was “yes”; the “Fluorescence from AT-100 observed” value is listed as “yes”. For the same molecule, at Aβ aggregates, the “Overlap between Fluorescence … from 4G8 observed” value is “no correlation and no”; the “Fluorescence from tested compound observed” value is reported as “yes”; the “Fluorescence from 4G8 observed” value is “yes”.

Regarding `CC[n+]1c(/C=C/c2ccc(-c3ccc[se]3)s2)[se]c2ccc(OC)cc21.[I-]` [Example Compound 3q], at tau aggregates, the “Labelling” value is “labelled both immune-positive NFTs and dystrophic neurites”; the “Fluorescence from tested compound observed” value is on record as “yes”; the “Overlap between Fluorescence from tested compound and fluorescence from AT-100 observed” value was “yes”; the “Fluorescence from AT-100 observed” value was “yes”. For the same molecule, on Aβ aggregates, the “Overlap between Fluorescence … from 4G8 observed” value was “no correlation and no”; the “Fluorescence from tested compound observed” value is given as “yes”; the “Fluorescence from 4G8 observed” value is “yes”.

As for `CC[n+]1c(/C=C/c2ccc(-c3ccc(C(=O)OC)cn3)s2)sc2ccccc21.[I-]` [Example Compound 3k], at tau aggregates, the “Labelling” value was “labelled both immune-positive NFTs and dystrophic neurites”; the “Fluorescence from tested compound observed” value was “yes”; the “Overlap between Fluorescence from tested compound and fluorescence from AT-100 observed” value is on record as “yes”; the “Fluorescence from AT-100 observed” value was “yes”. Moreover, at Aβ aggregates, the “Overlap between Fluorescence … from 4G8 observed” value was “no correlation and no”; the “Fluorescence from tested compound observed” value is given as “yes”; the “Fluorescence from 4G8 observed” value was “yes”.

Consider `CC[n+]1c(/C=C/c2ccc(-c3ccc(C(=O)OC)o3)o2)sc2ccccc21.[I-]` [Example Compound 3i], for which, at tau aggregates, the “Labelling” value was “labelled both immune-positive NFTs and dystrophic neurites”; the “Fluorescence from tested compound observed” value is given as “yes”; the “Overlap between Fluorescence from tested compound and fluorescence from AT-100 observed” value was “yes”; the “Fluorescence from AT-100 observed” value is recorded as “yes”. Besides, on Aβ aggregates, the “Overlap between Fluorescence … from 4G8 observed” value is “no correlation and no”; the “Fluorescence from tested compound observed” value is reported as “yes”; the “Fluorescence from 4G8 observed” value was “yes”.
